# Biological target: USP7 (Homo sapiens, UniProt Q93009)
# Assay: USP7 inhibitory potency (IC50)
# Type: biochemical
# Method: Activity for compounds described herein is provided in Table 2, wherein potency levels are provided as follows: (Potency: USP7 IC50: A<0.01 μM; B=0.01-0.1 μM; C=>0.1 μM.
# Chain of USP7 (Q93009 whole entry): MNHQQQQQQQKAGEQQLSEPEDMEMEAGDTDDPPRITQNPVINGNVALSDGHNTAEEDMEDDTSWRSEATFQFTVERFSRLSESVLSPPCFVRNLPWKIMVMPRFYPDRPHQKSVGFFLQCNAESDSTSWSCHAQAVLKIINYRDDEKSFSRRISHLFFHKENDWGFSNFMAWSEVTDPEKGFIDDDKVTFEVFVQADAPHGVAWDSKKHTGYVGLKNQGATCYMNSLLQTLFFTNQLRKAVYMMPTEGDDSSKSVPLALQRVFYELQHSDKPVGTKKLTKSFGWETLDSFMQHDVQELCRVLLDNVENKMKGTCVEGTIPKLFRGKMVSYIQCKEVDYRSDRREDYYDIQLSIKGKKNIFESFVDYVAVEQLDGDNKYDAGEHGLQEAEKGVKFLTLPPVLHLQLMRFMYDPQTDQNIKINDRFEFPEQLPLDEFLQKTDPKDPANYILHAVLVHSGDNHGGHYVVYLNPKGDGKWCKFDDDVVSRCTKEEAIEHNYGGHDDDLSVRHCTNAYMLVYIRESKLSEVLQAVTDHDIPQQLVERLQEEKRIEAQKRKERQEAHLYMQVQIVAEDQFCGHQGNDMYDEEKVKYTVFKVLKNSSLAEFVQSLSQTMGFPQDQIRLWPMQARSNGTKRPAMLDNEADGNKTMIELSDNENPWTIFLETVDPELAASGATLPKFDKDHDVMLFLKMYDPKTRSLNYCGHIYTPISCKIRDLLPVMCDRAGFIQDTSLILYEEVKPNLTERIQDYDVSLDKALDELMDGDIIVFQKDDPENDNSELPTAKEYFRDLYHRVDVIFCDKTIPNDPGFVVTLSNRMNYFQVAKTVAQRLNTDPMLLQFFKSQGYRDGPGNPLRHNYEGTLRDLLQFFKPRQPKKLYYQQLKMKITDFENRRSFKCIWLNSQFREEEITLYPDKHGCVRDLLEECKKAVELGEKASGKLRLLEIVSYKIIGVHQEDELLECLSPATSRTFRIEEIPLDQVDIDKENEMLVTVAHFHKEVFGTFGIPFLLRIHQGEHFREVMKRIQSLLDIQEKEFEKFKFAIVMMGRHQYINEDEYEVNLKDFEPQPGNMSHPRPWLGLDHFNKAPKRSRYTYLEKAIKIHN
row,IC50 [nM],Compound
1,< 10,"Cc1cc(Cl)cc(-c2ncnc3cc(CN4C(=O)CSC4=O)sc23)c1CN1C[C@@H](C)NC[C@@H]1C [Example 79, 3-((4-(5-chloro-2-(((2S,5R)-2,5-dimethylpiperazin-1-yl)methyl)-3-methylphenyl)thieno[3,2-d]pyrimidin-6-yl)methyl)thiazolidine-2,4-dione]"
2,< 10,"Cc1cc(Cl)cc(-c2ccnc3cc(CN4C(=O)CCC4=O)sc23)c1CN1[C@@H](C)CN(C)C[C@@H]1C [Example 29, 1-((7-(5-chloro-3-methyl-2-(((2S,6S)-2,4,6-trimethylpiperazin-1-yl)methyl)phenyl)thieno[3,2-b]pyridin-2-yl)methyl)pyrrolidine-2,5-dione]"
3,< 10,"Cc1cc(Cl)cc(-c2ncnc3cc(CN4C(=O)CCN(C)C4=O)sc23)c1CC1CNCC2(CCC2)O1 (centres unmarked) [Example 222, 3-((4-(2-((5-oxa-8-azaspiro[3.5]nonan-6-yl)methyl)-5-chloro-3-methylphenyl)thieno[3,2-d]pyrimidin-6-yl)methyl)-1-methyldihydropyrimidine-2,4(1H,3H)-dione]"
4,< 10,"Cc1cc(Cl)cc(-c2ncnc3cc(CN4C(=O)CCN(CC(F)(F)F)C4=O)sc23)c1CN1[C@@H](C)CNC[C@@H]1C [Example 260, 3-((4-(5-chloro-2-(((2S,6S)-2,6-dimethylpiperazin-1-yl)methyl)-3-methylphenyl)thieno[3,2-d]pyrimidin-6-yl)methyl)-1-(2,2,2-trifluoroethyl)dihydropyrimidine-2,4(1H,3H)-dione]"
5,< 10,"C[C@H]1CNC[C@H](C)N1Cc1c(Cl)cc(Cl)cc1-c1ccnc2cc(CN3C(=O)CCC3=O)sc12 [Example 48, 1-((7-(3,5-dichloro-2-(((2S,6S)-2,6-dimethylpiperazin-1-yl)methyl)phenyl)thieno[3,2-b]pyridin-2-yl)methyl)pyrrolidine-2,5-dione]"
6,10 to 100,"Cc1cc(C(F)(F)F)cc(-c2ncnc3cc(CN4C(=O)C5C(C4=O)C5(C)C)sc23)c1CN1CCNC[C@@H]1C (stereo partly drawn) [Example 59, 6,6-dimethyl-3-((4-(3-methyl-2-(((S)-2-methylpiperazin-1-yl)methyl)-5-(trifluoromethyl)phenyl)thieno[3,2-d]pyrimidin-6-yl)methyl)-3-azabicyclo[3.1.0]hexane-2,4-dione]"
7,< 10,"Cc1cc(Cl)cc(-c2ncnc3cc(CN4C(=O)CN(CC(F)(F)F)C4=O)sc23)c1CC1CNCCO1 (centres unmarked) [Example 176, 3-((4-(5-chloro-3-methyl-2-(morpholin-2-ylmethyl)phenyl)thieno[3,2-d]pyrimidin-6-yl)methyl)-1-(2,2,2-trifluoroethyl)imidazolidine-2,4-dione]"
8,< 10,"Cc1cc(Cl)cc(-c2ccnc3cc(CN4C(=O)CCC4=O)sc23)c1CN1[C@H](C)CNC[C@@H]1C [Example 22, 1-((7-(5-chloro-2-(((2R,6S)-2,6-dimethylpiperazin-1-yl)methyl)-3-methylphenyl)thieno[3,2-b]pyridin-2-yl)methyl)pyrrolidine-2,5-dione]"
9,10 to 100,"Cc1cc(Cl)cc(-c2ncnc3cc(CN4C(=O)CCN(C)C4=O)sc23)c1C[C@H]1CNCC(C)(C)O1 [Example 214, (S)-3-((4-(5-chloro-2-((6,6-dimethylmorpholin-2-yl)methyl)-3-methylphenyl)thieno[3,2-d]pyrimidin-6-yl)methyl)-1-methyldihydropyrimidine-2,4(1H,3H)-dione]"

# Further lines, the compound ahead of its results:
row,Compound,IC50 [nM]
1,"Cc1cc(Cl)cc(-c2ncnc3cc(CN4C(=O)CN(CC(=O)O)C4=O)sc23)c1C[C@@H]1CNCCO1 [Example 261, (R)-2-(3-((4-(5-chloro-3-methyl-2-(morpholin-2-ylmethyl)phenyl)thieno[3,2-d]pyrimidin-6-yl)methyl)-2,4-dioxoimidazolidin-1-yl)acetic acid]",10 to 100
2,"Cc1cc(Cl)cc(-c2ccnc3c(F)c(CN4C(=O)C5C(C4=O)C5(C)C)sc23)c1C[C@@H]1CNCCO1 (stereo partly drawn) [Example 146, 3-((7-(5-chloro-3-methyl-2-(((R)-morpholin-2-yl)methyl)phenyl)-3-fluorothieno[3,2-b]pyridin-2-yl)methyl)-6,6-dimethyl-3-azabicyclo[3.1.0]hexane-2,4-dione]",10 to 100
3,"Cc1cc(Cl)cc(-c2ccnc3cc(CN4C(=O)CCC4=O)sc23)c1CN1CC2CC1CN2 (centres unmarked) [Example 15, 1-((7-(2-((2,5-diazabicyclo[2.2.1]heptan-2-yl)methyl)-5-chloro-3-methylphenyl)thieno[3,2-b]pyridin-2-yl)methyl)pyrrolidine-2,5-dione]",< 10
4,"Cc1cc(Cl)cc(-c2ccnc3cc(CN4C(=O)C5CC5C4=O)sc23)c1CC1CNCCCO1 (centres unmarked) [Example 118, 3-((7-(2-((1,4-oxazepan-2-yl)methyl)-5-chloro-3-methylphenyl)thieno[3,2-b]pyridin-2-yl)methyl)-3-azabicyclo[3.1.0]hexane-2,4-dione]",< 10
5,"Cc1cc(Cl)cc(-c2ncnc3cc(CN4C(=O)C5CC5C4=O)sc23)c1CC1CNCCCO1 (centres unmarked) [Example 189, 3-((4-(2-((1,4-oxazepan-2-yl)methyl)-5-chloro-3-methylphenyl)thieno[3,2-d]pyrimidin-6-yl)methyl)-3-azabicyclo[3.1.0]hexane-2,4-dione]",< 10
6,"Cc1cc(Cl)cc(-c2ccnc3cc(CN4C(=O)C5CC5C4=O)sc23)c1CN1C[C@H](C)NC[C@@H]1C (stereo partly drawn) [Example 33, 3-((7-(5-chloro-2-(((2S,5 S)-2,5-dimethylpiperazin-1-yl)methyl)-3-methylphenyl)thieno[3,2-b]pyridin-2-yl)methyl)-3-azabicyclo[3.1.0]hexane-2,4-dione]",< 10
7,"CN1CCC(=O)N(Cc2cc3ncnc(-c4cc(Cl)cc(Cl)c4CC4CNCC(C)(C)O4)c3s2)C1=O (centres unmarked) [Example 210, 3-((4-(3,5-dichloro-2-((6,6-dimethylmorpholin-2-yl)methyl)phenyl)thieno[3,2-d]pyrimidin-6-yl)methyl)-1-methyldihydropyrimidine-2,4(1H,3H)-dione]",< 10
8,"Cc1cc(Cl)cc(-c2ccnc3cc(CN4C(=O)CCC4=O)sc23)c1CN1CCNC[C@H]1C [Example 7, (R)-1-((7-(5-chloro-3-methyl-2-((2-methylpiperazin-1-yl)methyl)phenyl)thieno[3,2-b]pyridin-2-yl)methyl)pyrrolidine-2,5-dione]",10 to 100
9,"O=C1C2CC2C(=O)N1Cc1cc2nccc(-c3cc(Cl)cc(Cl)c3CC3CNCC4(CCC4)O3)c2s1 (centres unmarked) [Example 150, 3-((7-(2-((5-oxa-8-azaspiro[3.5]nonan-6-yl)methyl)-3,5-dichlorophenyl)thieno[3,2-b]pyridin-2-yl)methyl)-3-azabicyclo[3.1.0]hexane-2,4-dione]",< 10
10,"Cc1cc(Cl)cc(-c2ncnc3cc(CN4C(=O)C5CC5C4=O)sc23)c1CC1CNCCOC1 (centres unmarked) [Example 185, 3-((4-(2-((1,4-oxazepan-6-yl)methyl)-5-chloro-3-methylphenyl)thieno[3,2-d]pyrimidin-6-yl)methyl)-3-azabicyclo[3.1.0]hexane-2,4-dione]",10 to 100
11,"Cc1cc(Cl)cc(-c2ncnc3cc(CN4C(=O)C5CC5C4=O)sc23)c1CC1CNCC(C)(C)O1 (centres unmarked) [Example 154, 3-((4-(5-chloro-2-((6,6-dimethylmorpholin-2-yl)methyl)-3-methylphenyl)thieno[3,2-d]pyrimidin-6-yl)methyl)-3-azabicyclo[3.1.0]hexane-2,4-dione]",< 10
12,"Cc1cc(Cl)cc(-c2ccnc3cc(CN4C(=O)CN(C)C4=O)sc23)c1C[C@@H]1CNCCO1 [Example 126, (R)-3-((7-(5-chloro-3-methyl-2-(morpholin-2-ylmethyl)phenyl)thieno[3,2-b]pyridin-2-yl)methyl)-1-methylimidazolidine-2,4-dione]",< 10
13,"Cc1cc(Cl)cc(-c2ncnc3cc(CN4CCOCC4=O)sc23)c1CC1CNCCO1 (centres unmarked) [Example 172, 4-((4-(5-chloro-3-methyl-2-(morpholin-2-ylmethyl)phenyl)thieno[3,2-d]pyrimidin-6-yl)methyl)morpholin-3-one]",> 100
14,"Cc1cc(Cl)cc(-c2ncnc3cc(CN4C(=O)CNC4=O)sc23)c1C[C@@H]1CNCCO1 [Example 243, (R)-3-((4-(5-chloro-3-methyl-2-(morpholin-2-ylmethyl)phenyl)thieno[3,2-d]pyrimidin-6-yl)methyl)imidazolidine-2,4-dione]",< 10
15,"Cc1cc(Cl)cc(-c2ccnc3cc(CN4C(=O)C5CC5C4=O)sc23)c1C[C@@H]1CNCC(C)(C)O1 (stereo partly drawn) [Example 129, 3-((7-(5-chloro-2-(((R)-6,6-dimethylmorpholin-2-yl)methyl)-3-methylphenyl)thieno[3,2-b]pyridin-2-yl)methyl)-3-azabicyclo[3.1.0]hexane-2,4-dione]",< 10
16,"Cc1cc(Cl)cc(-c2ccnc3cc(CN4C(=O)CCC4=O)sc23)c1CN1CCNCC1C(F)F (centres unmarked) [Example 16, 1-((7-(5-chloro-2-((2-(difluoromethyl)piperazin-1-yl)methyl)-3-methylphenyl)thieno[3,2-b]pyridin-2-yl)methyl)pyrrolidine-2,5-dione]",10 to 100
17,"CC1(C)CNCC(Cc2c(Cl)cc(Cl)cc2-c2ccnc3cc(CN4C(=O)CCC4=O)sc23)O1 (centres unmarked) [Example 128, 1-((7-(3,5-dichloro-2-((6,6-dimethylmorpholin-2-yl)methyl)phenyl)thieno[3,2-b]pyridin-2-yl)methyl)pyrrolidine-2,5-dione]",< 10
18,"Cc1cc(Cl)cc(-c2ncnc3cc(CN4CCCCC4=O)sc23)c1CC1CNCCO1 (centres unmarked) [Example 175, 1-((4-(5-chloro-3-methyl-2-(morpholin-2-ylmethyl)phenyl)thieno[3,2-d]pyrimidin-6-yl)methyl)piperidin-2-one]",> 100
19,"Cc1cc(Cl)cc(-c2ccnc3cc(CN4C(=O)CCC4=O)sc23)c1CN1C[C@@H](C)N[C@H](C)C1 [Example 26, 1-((7-(5-chloro-2-(((3R,5R)-3,5-dimethylpiperazin-1-yl)methyl)-3-methylphenyl)thieno[3,2-b]pyridin-2-yl)methyl)pyrrolidine-2,5-dione]",< 10
20,"Cc1cc(Cl)cc(-c2ncnc3cc(CN4C(=O)C5CCCN5C4=O)sc23)c1CC1CNCCO1 (centres unmarked) [Example 187, 2-((4-(5-chloro-3-methyl-2-(morpholin-2-ylmethyl)phenyl)thieno[3,2-d]pyrimidin-6-yl)methyl)tetrahydro-1H-pyrrolo[1,2-c]imidazole-1,3(2H)-dione]",< 10

# Source: US11084829B2, “Ubiquitin-specific-processing protease 7 (USP7) modulators and uses thereof” (RAPT THERAPEUTICS, INC., priority 2018, dated 2021)
